Laboratory results as given in patent publication US20260069581A1, “METHODS AND COMPOSITIONS FOR CANCER THERAPY” (OHIO STATE INNOVATION FOUNDATION, priority 2020, published 2026).

Legend:
[1] = tested on: NHEJ activity in EJDR-reporter-stable U2OS cells; experiment: EJDR reporter assay, NHEJ DsRed; assay type: cell-based
Description: EJDR reporter assay. The EJDR assay was described previously (20). EJDR reporter cells were plated at 5×10^5 cells per well in 10% FBS and RPM11640. After drug treatments, cells were grown in 10% Tet-free FBS (100-800; Gemini) and RPM11640. Incorporated I-Sce1 was induced with Shield1 (632189; Clontech) and triamcinolone (TA) (T6510; Sigma Aldrich) ligands for 24 hours. NHEJ and HR repair activities were assessed 48 hours post induction by quantification of DsRed- and GFP-positive cells on Cytomics FC 500 Flow Cytometer (Beckman Coulter, Brea, CA).
It was unclear whether the potent ability of HDAC inhibitor to induce apoptosis of AML cells in combination with NAMPT inhibition was due to the loss of HR or NHEJ activity alone or both together. Accordingly, HR and NHEJ activities in AML cells exposed to these treatments were examined using the EJDR reporter system (FIG. 6B). EJDR-reporter-stable U2OS cells were treated with vehicle, single agents, or drug combination before being incubated with ligands, TA and Shield 1. […] The expression of D-NHEJ pathway factors, Ku70 and DNA-PKcs, and ATM pathway mediators, CHEK1 and CHEK2, were abolished by AR-42 and KPT-9274 co-treatment. […] Therefore, suppression of HDAC8 can attenuate HR and D-NHEJ gene expressions, resulting in NAMPT inhibitor sensitivity.

IDH2-WT TF-1 cells = experiment: Phospho-H2A.X (pS139) flow cytometry; assay type: cell-based; conditions: IDH2-WT TF-1, 48 hours, 0.8 μM AR-42, 0.1 μM KPT-9274
Description: Thereafter, cells were fixed, permeabilized and stained with BV421 mouse anti-H2A.X (pS139) (Clone N1-431). Stained cells were analyzed by flow cytometry. Results are shown as mean±SEM of duplicates. *p<0.05. N.S.: not significant. […] Results are shown as mean±SEM of duplicates. *p<0.05. […] MOLM13 cells were treated with vehicle control, 0.4 μM or 0.8 μM AR-42 alone, 0.1 μM or 0.25 μM KPT-2974 alone and drug combination for 24 hours before being subject to Western blotting analysis of HR, NHEJ and ATM markers. GAPDH served as loading control. Results are representative of two independent experiments. In the FIG. the treatment concentrations, protein detected in the given Western blot, and molecular weight of the protein detected are as shown in the figure. […] Scrambled or shHDAC8-transduced MOLM13 cells were treated with vehicle, 0.1 μM or 0.25 μM KPT-2974 before being subject to immunoblotting analysis of DNA repair targets. GAPDH serves as loading control. Results are representative of two independent experiments. In the FIG. the treatment concentrations, protein detected in the given Western blot, and molecular weight of the protein detected are as shown in the figure. […] PAPR1 was immunoprecipitated and mono-ADP-ribosylation was detected by western blotting. Results are representative of two independent experiments. […]

[2] = tested on: DNA repair genes in patient LICs (CD34+ CD38−); experiment: LC-RNA-seq of primary patient LICs; assay type: cell-based, human
Description: FIG. 5A-5E show representative data that AR-42 and KPT-9274 synergistically alter DNA repair gene sets of LIC transcriptomes. […] Briefly, primary cells from 5 patients were treated with drug combination or vehicle for 12 hours before LICs (CD34^+ CD38^−) were sorted for LC-RNA-seq. […] Cutoff Log 2FC=1.5; p-value<10e^−2. […] The hierarchical clustering of genes and samples was performed using Euclidean distance matrix and Ward's clustering method.
Limiting cell-RNA-seq (LC-RNA-seq) for primary patient LICs. LC-RNA-seq was performed as previously described to determine transcriptome profiles and differentially expressed genes (DEGs) of patient LICs treated with various inhibitors (21). Briefly, patient cells were cultured in the presence of cytokines and treated with vehicle, single agents or drug combination. 300 viable LICs from treated patient samples were sorted directly into SMART-seq lysis buffer with FACSAria Fusion (BD) based on putative stem cell markers CD34^+ CD38^− (22). […] The Clontech SMARTer v4 kit (Takara Bio USA, Inc., Mountain View, CA) was used for preamplifying samples prior to library construction with the Nextera XT DNA Library Prep Kit (Illumina, Inc., San Diego, CA). Samples were sequenced to a depth of 15-20 million 2×150 bp clusters with the Illumina HiSeq 4000 platform. After quality control with CLEAR selection process and size-normalization, DEGs were called with DESeqs with (FDR) adjusted p-value <0.05. Principle component analysis (PCA) plots were created from count tables which were normalized by size and transformed. For pathway analysis, the list of DEGs, containing gene IDs and corresponding expression values, was uploaded into the IPA software (Qiagen) (Ingenuity Pathway Analysis, RRID:SCR_008653). […]
The synthetic lethality of AR-42 and KPT-9274 is conferred by simultaneous suppression of HR and NHEJ pathways in leukemia initiating cells (LICs). […] Treated LICs were analyzed for transcriptional differences and DNA repair mechanisms were highlighted.

Nc1ccc(/C=C/C(=O)NCc2cc3cc(-c4ccc(C(=O)N5CCC(F)(F)CC5)cc4)cc(-c4ccc(F)cc4)c3o2)cn1 [KPT-9274, (E)-3-(6-aminopyridin-3-yl)-N-[[5-[4-(4,4-difluoropiperidine-1-carbonyl)phenyl]-7-(4-fluorophenyl)-1-benzofuran-2-yl]methyl]prop-2-enamide]
NHEJ activity (percentage of DsRed+ cells) [1]: more robust reduction | fluorescence intensity of phospho-H2A.X staining (IDH2-WT TF-1 cells): slightly increased | BRCA1 and XRCC4 expression ([2]; KPT-9274 alone, in some patients): upregulated | yields of D-NHEJ transcripts (XRCC6, PRKDC) and B-NHEJ gene PARP1 ([2]; in all patients): decreased

CC(C)[C@H](C(=O)Nc1ccc(C(=O)NO)cc1)c1ccccc1 [AR-42, (S)—N-Hydroxy-4-(3-methyl-2-phenylbutanamido)benzamide]
NHEJ activity (percentage of DsRed+ cells) [1]: NHEJ deficiency | fluorescence intensity of phospho-H2A.X staining (IDH2-WT TF-1 cells): slightly increased | mRNA levels of HR genes (NBN, RBBP8, RAD51, BRCA1), D-NHEJ genes (XRCC4, XRCC5) and ATM pathway genes (CHEK1, CHEK2) ([2]; AR-42 alone or in combination with KPT-9274, 12 hours): downregulated
